Data as given in PMC9898036, “VIP152 is a selective CDK9 inhibitor with pre-clinical in vitro and in vivo efficacy in chronic lymphocytic leukemia” (Leukemia, 2022).
Like-named read-outs stand apart in the source and are kept apart here.

Experiments:
BRK = BRK (Homo sapiens, UniProt Q13882); experiment: KINOMEscan: BRK; type: binding; conditions: 1000 nM, read-out: Percent Control
LRRK2(G2019S) = LRRK2(G2019S) (Homo sapiens, UniProt Q5S007, G2019S); experiment: KINOMEscan: LRRK2(G2019S); type: binding; conditions: 1000 nM, read-out: Percent Control
Glutamate, Kainate = experiment: Eurofins Diversity Panel; type: binding; conditions: rat, Conc. 10 μM
Calcium Channel N-Type = Calcium Channel N-Type (Rattus norvegicus, UniProt Q02294); experiment: Eurofins Diversity Panel; type: binding; conditions: Conc. 10 μM
[1] = target: RSK1(Kin.Dom.2-C-terminal) (Homo sapiens, UniProt Q15418); experiment: KINOMEscan: RSK1(Kin.Dom.2-C-terminal); type: binding; conditions: 100 nM, read-out: Percent Control
AMPK-alpha2 = AMPK-alpha2 (Homo sapiens, UniProt P54646); experiment: KINOMEscan: AMPK-alpha2; type: binding; conditions: 1000 nM, read-out: Percent Control
AMPK-alpha2, sequence (P54646 whole entry): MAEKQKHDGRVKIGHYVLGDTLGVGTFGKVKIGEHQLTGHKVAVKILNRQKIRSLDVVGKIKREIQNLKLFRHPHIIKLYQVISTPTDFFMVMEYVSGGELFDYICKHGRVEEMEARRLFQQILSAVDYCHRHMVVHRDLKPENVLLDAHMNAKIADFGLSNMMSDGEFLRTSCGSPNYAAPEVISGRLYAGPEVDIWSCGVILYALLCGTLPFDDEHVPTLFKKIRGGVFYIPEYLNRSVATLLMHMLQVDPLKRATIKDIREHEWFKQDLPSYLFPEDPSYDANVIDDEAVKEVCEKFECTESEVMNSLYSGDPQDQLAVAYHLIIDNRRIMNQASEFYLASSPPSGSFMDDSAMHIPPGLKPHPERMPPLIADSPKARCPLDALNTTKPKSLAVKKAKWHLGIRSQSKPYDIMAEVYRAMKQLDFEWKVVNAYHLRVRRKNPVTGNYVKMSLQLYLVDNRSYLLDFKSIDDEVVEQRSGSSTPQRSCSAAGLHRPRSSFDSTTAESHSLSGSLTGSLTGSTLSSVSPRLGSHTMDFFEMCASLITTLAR

[2] = design: method as in PMID 35046056; conditions: human, cited from earlier work
CAMK1D = CAMK1D (Homo sapiens, UniProt Q8IU85); experiment: KINOMEscan: CAMK1D; type: binding; conditions: 1000 nM, read-out: Percent Control
human kinome [3] = target: human kinome (Homo sapiens, UniProt Q9H4B4); experiment: DiscoverX KINOMEscan kinase profiling (468 assays); type: binding; conditions: read-out: Percent Control
human kinome (Homo sapiens, UniProt Q9H4B4), sequence (Q9H4B4 whole entry): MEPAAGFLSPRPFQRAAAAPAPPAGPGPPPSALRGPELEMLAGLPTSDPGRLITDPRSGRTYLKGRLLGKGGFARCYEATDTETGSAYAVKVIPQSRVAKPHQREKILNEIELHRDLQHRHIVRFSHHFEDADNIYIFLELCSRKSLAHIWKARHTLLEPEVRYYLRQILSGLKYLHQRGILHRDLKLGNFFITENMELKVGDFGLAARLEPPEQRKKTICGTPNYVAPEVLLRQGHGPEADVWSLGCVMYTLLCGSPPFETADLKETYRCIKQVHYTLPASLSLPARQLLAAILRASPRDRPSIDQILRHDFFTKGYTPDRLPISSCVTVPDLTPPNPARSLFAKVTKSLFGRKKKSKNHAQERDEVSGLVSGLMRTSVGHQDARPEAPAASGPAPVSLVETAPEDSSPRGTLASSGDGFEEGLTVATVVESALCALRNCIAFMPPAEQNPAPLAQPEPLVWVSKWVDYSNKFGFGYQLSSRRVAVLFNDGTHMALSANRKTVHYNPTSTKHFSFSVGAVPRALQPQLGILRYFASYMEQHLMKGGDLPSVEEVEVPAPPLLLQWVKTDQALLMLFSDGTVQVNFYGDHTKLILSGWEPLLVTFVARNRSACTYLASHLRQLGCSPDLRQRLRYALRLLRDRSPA
In short: (§1)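 DNA-tagged kinases competed for immobilized biotinylated ligands on streptavidin magnetic beads, with bound kinase quantified by qPCR. VIP152 in DMSO was tested against a DMSO control.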

human kinome [4] = target: human kinome (Homo sapiens, UniProt P10721, L576P); experiment: DiscoverX KINOMEscan kinase profiling (468 assays); type: binding; conditions: KIT(L576P); 100 nM; read-out: Percent Control
In short: as §1

human kinome [5] = target: human kinome (Homo sapiens, UniProt P27361); experiment: DiscoverX KINOMEscan kinase profiling (468 assays); type: binding; conditions: ERK1 (Entrez MAPK3); 100 nM; read-out: Percent Control
In short: as §1

human kinome [6] = target: human kinome (Homo sapiens, UniProt Q8N5S9); experiment: DiscoverX KINOMEscan kinase profiling (468 assays); type: binding; conditions: CAMKK1; 100 nM; read-out: Percent Control
human kinome (Homo sapiens, UniProt Q8N5S9), sequence (Q8N5S9 whole entry): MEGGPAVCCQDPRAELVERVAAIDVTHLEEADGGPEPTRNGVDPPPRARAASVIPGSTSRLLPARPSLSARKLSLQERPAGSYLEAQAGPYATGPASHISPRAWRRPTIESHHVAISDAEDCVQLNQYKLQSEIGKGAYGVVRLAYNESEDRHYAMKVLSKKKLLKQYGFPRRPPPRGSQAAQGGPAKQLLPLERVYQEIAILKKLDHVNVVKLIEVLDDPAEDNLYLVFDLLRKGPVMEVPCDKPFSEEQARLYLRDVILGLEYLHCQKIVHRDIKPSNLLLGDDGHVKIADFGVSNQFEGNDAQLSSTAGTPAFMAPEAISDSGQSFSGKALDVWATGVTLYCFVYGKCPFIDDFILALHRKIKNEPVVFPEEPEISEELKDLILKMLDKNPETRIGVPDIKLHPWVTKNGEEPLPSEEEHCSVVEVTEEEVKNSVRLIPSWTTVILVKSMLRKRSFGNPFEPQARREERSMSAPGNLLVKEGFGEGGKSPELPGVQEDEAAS
In short: as §1

human kinome [7] = target: human kinome (Homo sapiens, UniProt P48730); experiment: DiscoverX KINOMEscan kinase profiling (468 assays); type: binding; conditions: CSNK1D; 100 nM; read-out: Percent Control
In short: as §1

human kinome [8] = target: human kinome (Homo sapiens, UniProt Q6PHR2); experiment: DiscoverX KINOMEscan kinase profiling (468 assays); type: binding; conditions: kinase ULK3 (Entrez ULK3); compound concentration 1000 nM; read-out: Percent Control
In short: as §1

human kinome [9] = target: human kinome (Homo sapiens, UniProt P32298); experiment: DiscoverX KINOMEscan kinase profiling (468 assays); type: binding; conditions: GRK4; 100 nM; read-out: Percent Control
In short: as §1

human kinome [10] = target: human kinome (Homo sapiens, UniProt Q9Y243); experiment: DiscoverX KINOMEscan kinase profiling (468 assays); type: binding; conditions: AKT3; 100 nM; read-out: Percent Control
In short: as §1

human kinome [11] = target: human kinome (Homo sapiens, UniProt O15264); experiment: DiscoverX KINOMEscan kinase profiling (468 assays); type: binding; conditions: read-out: Percent Control
human kinome (Homo sapiens, UniProt O15264), sequence (O15264 whole entry): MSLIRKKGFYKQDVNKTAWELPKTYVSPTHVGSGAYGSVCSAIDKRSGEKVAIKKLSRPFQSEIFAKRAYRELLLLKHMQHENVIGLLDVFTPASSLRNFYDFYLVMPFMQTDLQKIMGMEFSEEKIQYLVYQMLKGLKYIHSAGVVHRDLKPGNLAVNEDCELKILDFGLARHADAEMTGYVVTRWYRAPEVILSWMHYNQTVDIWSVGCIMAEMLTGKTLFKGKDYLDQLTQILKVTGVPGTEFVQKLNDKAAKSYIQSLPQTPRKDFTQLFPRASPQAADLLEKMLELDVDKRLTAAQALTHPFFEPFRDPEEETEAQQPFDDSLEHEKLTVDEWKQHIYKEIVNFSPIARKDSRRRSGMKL
In short: as §1

human kinome [12] = target: human kinome (Homo sapiens, UniProt Q99759); experiment: DiscoverX KINOMEscan kinase profiling (468 assays); type: binding; conditions: MAP3K3; 100 nM; read-out: Percent Control
human kinome (Homo sapiens, UniProt Q99759), sequence (Q99759 whole entry): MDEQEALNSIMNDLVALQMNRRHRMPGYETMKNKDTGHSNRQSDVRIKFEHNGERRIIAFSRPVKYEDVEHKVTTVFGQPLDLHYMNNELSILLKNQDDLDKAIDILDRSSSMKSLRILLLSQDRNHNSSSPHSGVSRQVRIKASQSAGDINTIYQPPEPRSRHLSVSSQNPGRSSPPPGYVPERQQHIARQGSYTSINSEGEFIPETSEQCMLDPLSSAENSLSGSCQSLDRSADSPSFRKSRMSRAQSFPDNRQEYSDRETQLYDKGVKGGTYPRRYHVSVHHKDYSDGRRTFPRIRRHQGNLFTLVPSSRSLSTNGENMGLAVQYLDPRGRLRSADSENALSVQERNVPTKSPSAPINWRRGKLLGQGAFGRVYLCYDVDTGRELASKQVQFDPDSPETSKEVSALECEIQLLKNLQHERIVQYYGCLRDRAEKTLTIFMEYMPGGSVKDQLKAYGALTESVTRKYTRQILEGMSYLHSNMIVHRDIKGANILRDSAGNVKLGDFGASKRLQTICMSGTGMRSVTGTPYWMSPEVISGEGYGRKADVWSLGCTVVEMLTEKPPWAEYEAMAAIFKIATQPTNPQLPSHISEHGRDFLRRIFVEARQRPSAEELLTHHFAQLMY
In short: as §1

human kinome [13] = target: human kinome (Homo sapiens, UniProt P36888); experiment: DiscoverX KINOMEscan kinase profiling (468 assays); type: binding; conditions: 100 nM, read-out: Percent Control
human kinome (Homo sapiens, UniProt P36888), sequence (P36888 27-993): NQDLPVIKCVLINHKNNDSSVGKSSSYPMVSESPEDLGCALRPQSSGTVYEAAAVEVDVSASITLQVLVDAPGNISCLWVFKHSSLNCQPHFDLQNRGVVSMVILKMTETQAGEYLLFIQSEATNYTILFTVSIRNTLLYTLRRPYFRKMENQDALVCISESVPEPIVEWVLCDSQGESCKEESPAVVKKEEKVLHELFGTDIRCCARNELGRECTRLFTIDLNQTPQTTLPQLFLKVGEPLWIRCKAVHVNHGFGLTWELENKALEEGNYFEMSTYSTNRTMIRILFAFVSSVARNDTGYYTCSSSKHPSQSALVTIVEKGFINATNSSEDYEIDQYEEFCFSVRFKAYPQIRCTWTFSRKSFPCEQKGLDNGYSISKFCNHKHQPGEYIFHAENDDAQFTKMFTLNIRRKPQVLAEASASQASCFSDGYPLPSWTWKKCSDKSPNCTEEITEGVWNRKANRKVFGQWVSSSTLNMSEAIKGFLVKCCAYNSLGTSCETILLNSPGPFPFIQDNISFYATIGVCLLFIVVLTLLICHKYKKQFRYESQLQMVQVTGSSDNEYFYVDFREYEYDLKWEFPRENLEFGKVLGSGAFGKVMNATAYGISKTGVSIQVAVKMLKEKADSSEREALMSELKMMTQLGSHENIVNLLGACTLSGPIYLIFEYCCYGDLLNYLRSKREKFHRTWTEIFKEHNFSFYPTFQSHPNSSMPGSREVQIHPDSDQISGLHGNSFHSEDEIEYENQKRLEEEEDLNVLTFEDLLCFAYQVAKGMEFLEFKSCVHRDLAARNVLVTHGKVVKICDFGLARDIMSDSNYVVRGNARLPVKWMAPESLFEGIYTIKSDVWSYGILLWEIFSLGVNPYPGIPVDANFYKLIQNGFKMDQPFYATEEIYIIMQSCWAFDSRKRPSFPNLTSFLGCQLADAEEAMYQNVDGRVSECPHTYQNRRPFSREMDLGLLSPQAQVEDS
In short: as §1

human kinome [14] = target: human kinome (Homo sapiens, UniProt P00533, DEL752-759); experiment: DiscoverX KINOMEscan kinase profiling (468 assays); type: binding; conditions: EGFR(S752-I759del); 100 nM; read-out: Percent Control
In short: as §1

human kinome [15] = target: human kinome (Homo sapiens, UniProt Q96SB4); experiment: DiscoverX KINOMEscan kinase profiling (468 assays); type: binding; conditions: kinase SRPK1 (Entrez SRPK1); compound concentration 1000 nM; read-out: Percent Control
In short: as §1

human kinome [16] = target: human kinome (Homo sapiens, UniProt Q9UEE5); experiment: DiscoverX KINOMEscan kinase profiling (468 assays); type: binding; conditions: DRAK1 (Entrez STK17A); 100 nM; read-out: Percent Control
In short: as §1

human kinome [17] = target: human kinome (Homo sapiens, UniProt Q9Y3S1); experiment: DiscoverX KINOMEscan kinase profiling (468 assays); type: binding; conditions: kinase WNK2 (Entrez WNK2); compound concentration 1000 nM; read-out: Percent Control
In short: as §1

human kinome [18] = target: human kinome (Homo sapiens, UniProt Q9HCP0); experiment: DiscoverX KINOMEscan kinase profiling (468 assays); type: binding; conditions: CSNK1G1; 100 nM; read-out: Percent Control
In short: as §1

human kinome [19] = target: human kinome (Homo sapiens, UniProt Q9NQU5); experiment: DiscoverX KINOMEscan kinase profiling (468 assays); type: binding; conditions: read-out: Percent Control
human kinome (Homo sapiens, UniProt Q9NQU5), sequence (Q9NQU5 whole entry): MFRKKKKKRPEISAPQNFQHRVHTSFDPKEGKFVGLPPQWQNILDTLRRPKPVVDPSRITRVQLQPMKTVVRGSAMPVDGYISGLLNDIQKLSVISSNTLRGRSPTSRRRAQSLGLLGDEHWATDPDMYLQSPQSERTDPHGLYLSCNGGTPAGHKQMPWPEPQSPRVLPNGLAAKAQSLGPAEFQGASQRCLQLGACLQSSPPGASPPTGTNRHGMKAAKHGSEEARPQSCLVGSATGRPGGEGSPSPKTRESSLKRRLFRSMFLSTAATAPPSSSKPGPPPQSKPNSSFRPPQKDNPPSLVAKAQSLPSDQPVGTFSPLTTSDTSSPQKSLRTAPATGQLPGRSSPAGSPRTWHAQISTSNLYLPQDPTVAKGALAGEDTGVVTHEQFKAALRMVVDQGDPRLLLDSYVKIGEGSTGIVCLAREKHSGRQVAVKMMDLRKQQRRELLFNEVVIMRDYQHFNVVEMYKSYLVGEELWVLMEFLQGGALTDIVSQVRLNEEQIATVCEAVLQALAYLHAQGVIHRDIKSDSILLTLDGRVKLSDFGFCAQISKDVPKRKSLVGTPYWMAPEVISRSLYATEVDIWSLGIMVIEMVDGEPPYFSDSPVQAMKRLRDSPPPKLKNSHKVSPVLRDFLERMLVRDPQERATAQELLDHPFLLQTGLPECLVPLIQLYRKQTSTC
In short: as §1

human kinome [20] = target: human kinome (Homo sapiens, UniProt Q07912); experiment: DiscoverX KINOMEscan kinase profiling (468 assays); type: binding; conditions: kinase TNK2 (Entrez TNK2); compound concentration 1000 nM; read-out: Percent Control
In short: as §1

human kinome [21] = target: human kinome (Homo sapiens, UniProt Q32MK0); experiment: DiscoverX KINOMEscan kinase profiling (468 assays); type: binding; conditions: MLCK (Entrez MYLK3); 100 nM; read-out: Percent Control
In short: as §1

human kinome [22] = target: human kinome (Homo sapiens, UniProt O14920); experiment: DiscoverX KINOMEscan kinase profiling (468 assays); type: binding; conditions: IKK-beta (Entrez IKBKB); 100 nM; read-out: Percent Control
In short: as §1

human kinome [23] = target: human kinome (Homo sapiens, UniProt P25098); experiment: DiscoverX KINOMEscan kinase profiling (468 assays); type: binding; conditions: GRK2 (Entrez ADRBK1); 100 nM; read-out: Percent Control
human kinome (Homo sapiens, UniProt P25098), sequence (P25098 whole entry): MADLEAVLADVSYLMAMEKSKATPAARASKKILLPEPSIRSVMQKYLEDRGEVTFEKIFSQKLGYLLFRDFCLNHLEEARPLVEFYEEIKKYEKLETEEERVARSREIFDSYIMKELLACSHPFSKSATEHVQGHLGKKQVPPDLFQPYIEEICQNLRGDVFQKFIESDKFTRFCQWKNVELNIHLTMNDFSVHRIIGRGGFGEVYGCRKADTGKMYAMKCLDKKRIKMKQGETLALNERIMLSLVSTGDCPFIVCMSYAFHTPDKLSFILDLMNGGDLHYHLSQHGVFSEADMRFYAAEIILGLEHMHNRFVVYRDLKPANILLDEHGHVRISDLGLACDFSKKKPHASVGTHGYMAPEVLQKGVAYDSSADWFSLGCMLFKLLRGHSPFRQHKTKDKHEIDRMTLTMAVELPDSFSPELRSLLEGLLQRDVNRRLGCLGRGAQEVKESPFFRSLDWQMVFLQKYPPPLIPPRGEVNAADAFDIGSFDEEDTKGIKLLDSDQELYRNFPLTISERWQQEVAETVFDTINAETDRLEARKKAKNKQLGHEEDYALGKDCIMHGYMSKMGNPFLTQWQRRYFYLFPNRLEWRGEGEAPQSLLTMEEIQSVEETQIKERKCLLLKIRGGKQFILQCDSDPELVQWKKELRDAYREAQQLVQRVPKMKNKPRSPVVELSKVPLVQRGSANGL
In short: as §1

MEK6 = MEK6 (Homo sapiens, UniProt P52564); experiment: KINOMEscan: MEK6; type: binding; conditions: 1000 nM, read-out: Percent Control

COc1cc(F)ccc1-c1cc(Nc2cc(CS(C)(=N)=O)ccn2)ncc1F (centres unmarked) [VIP152]
remaining binding at 1 µM (BRK): 79% | remaining binding at 1 µM (LRRK2(G2019S)): 86% | % Inh. (Glutamate, Kainate): 13% | inhibition at 10 µM (Calcium Channel N-Type): 4% | remaining binding at 0.1 µM [1]: 100% | remaining binding at 1 µM (AMPK-alpha2): 99% | Cmax [2]: 836 ng/mL | Cmax ([2]; read-out: Cmax, corresponding concentration): 2000 nM | remaining binding at 1 µM (CAMK1D): 99% | remaining binding at 0.1 µM (human kinome [3]; PLK3, 100 nM): 91% | remaining binding at 1 µM (human kinome [3]; kinase PLK3 (Entrez PLK3), compound concentration 1000 nM): 92% | remaining binding at 0.1 µM (human kinome [4]): 100% | remaining binding at 0.1 µM (human kinome [5]): 100% | remaining binding at 0.1 µM (human kinome [6]): 89% | remaining binding at 0.1 µM (human kinome [7]): 100% | remaining binding at 1 µM (human kinome [8]): 85% | remaining binding at 0.1 µM (human kinome [9]): 88% | remaining binding at 0.1 µM (human kinome [10]): 100% | remaining binding at 1 µM (human kinome [11]; kinase p38-delta (Entrez MAPK13), compound concentration 1000 nM): 98% | remaining binding at 0.1 µM (human kinome [11]; p38-delta (Entrez MAPK13), 100 nM): 100% | remaining binding at 0.1 µM (human kinome [12]): 100% | remaining binding at 0.1 µM (human kinome [13]; FLT3-autoinhibited): 99% | remaining binding at 0.1 µM (human kinome [13]; FLT3): 72% | remaining binding at 0.1 µM (human kinome [14]): 100% | remaining binding at 1 µM (human kinome [15]): 91% | remaining binding at 0.1 µM (human kinome [16]): 100% | remaining binding at 1 µM (human kinome [17]): 85% | remaining binding at 0.1 µM (human kinome [18]): 100% | remaining binding at 0.1 µM (human kinome [19]; PAK6, 100 nM): 100% | remaining binding at 1 µM (human kinome [19]; kinase PAK6 (Entrez PAK6), compound concentration 1000 nM): 91% | remaining binding at 1 µM (human kinome [20]): 92% | remaining binding at 0.1 µM (human kinome [21]): 100% | remaining binding at 0.1 µM (human kinome [22]): 100% | remaining binding at 0.1 µM (human kinome [23]): 100% | remaining binding at 1 µM (MEK6): 94%
